Molecular target: T1, MAL^TIR (Homo sapiens, UniProt P58753)
T1 construct: MAL (residues 79–221); 6xHis; made in house; host or cells: E. coli BL21 (DE3)
Assay: T‐Surf phage library (P8 and P3) selection against MAL^TIR, four rounds, NGS read counts
Assay type: binding
Settings: for P8_MAL Rank (after) / P8_MAL Rank (before): P8 library; for P3_MAL Rank (after) / P3_MAL Rank (before): P3 library; for Population: 4th round of selection against MAL TIR, share of NGS reads
Procedure, shortened: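 P8 and P3 T‐Surf libraries panned against plate-coated TIR domains (5 µg mL^−1), 1 h binding at RT, acid elution and TG1/helper-phage amplification per round. After four rounds, pools were PCR-barcoded and sequenced (NovaSeq, 100 bp paired-end, Phred ≥30); peptides ranked by read counts.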

[1] = selection against MAL, rank after grouping
[2] = selection against MAL, rank before grouping
[3] = selection against MAL TIR, rank by count after grouping
[4] = selection against MAL TIR, rank by count before grouping
[5] = 4R selection against MAL, rank after grouping
[6] = 4R selection against MAL, rank before grouping
[7] = P8_MAL pool: P8 T-Surf phage library
[8] = selection against MAL, rank by count after grouping
[9] = selection against MAL, rank by count before grouping
[10] = P8_MAL: rank by count after grouping
[11] = P8_MAL: rank by count before grouping
[12] = P3_MAL pool: P3 T-Surf phage library
[13] = P3_MAL: rank by count after grouping
[14] = P3_MAL: rank by count before grouping

T1 sequence (P58753 79-221): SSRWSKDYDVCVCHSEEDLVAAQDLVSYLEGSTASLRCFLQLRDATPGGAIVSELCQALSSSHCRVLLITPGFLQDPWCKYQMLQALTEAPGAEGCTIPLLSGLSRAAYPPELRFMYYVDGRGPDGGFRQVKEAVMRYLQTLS

## AFLYTFLGHLYNALVQAGIH
[1]
  P8_MAL Rank (after): 497
[2]
  P8_MAL Rank (before): 1828

## PNLRTTVQNYLMRTKT
[3]
  P3_MAL Rank (after): 216
[4]
  P3_MAL Rank (before): 2690

## AFLYTFLLNLTHQPTF
[1]
  P8_MAL Rank (after): 485
[2]
  P8_MAL Rank (before): 1831

## TFLGHLYNALVQAGIRAFL
[5]
  P8_MAL Rank (after): 588
[6]
  P8_MAL Rank (before): 2579

## WFYERLASLILRDTKV
[7]
  Population: 0.0034%

## RGFLNHLHHHLQPNDH
[8]
  P3_MAL Rank (after): 703
[9]
  P3_MAL Rank (before): 2351

## SLLYDHLRRLGIRAIM
[8]
  P8_MAL Rank (after): 700
[9]
  P8_MAL Rank (before): 2491

## HQTFWDRLCAKLKAPI
[8]
  P3_MAL Rank (after): 705
[9]
  P3_MAL Rank (before): 2898

## WFYERLVSLILRDSKV
[7]
  Population: 0.00309%

## YFLHFLLFSRPEPAYI
[10]
  Rank (after): 114
[11]
  Rank (before): 1463

## NQWRNALTAVANLSGW
[12]
  Population: 0.00451%

## GFYERQVSLVLGDTKV
[3]
  P8_MAL Rank (after): 281
[4]
  P8_MAL Rank (before): 1569

## NQWRNALTAAAKLKAPI
[1]
  P3_MAL Rank (after): 522
[2]
  P3_MAL Rank (before): 3386

## TFLGFLYIALVQAGFL
[8]
  P8_MAL Rank (after): 724
[9]
  P8_MAL Rank (before): 2549

## SSLREVLWRLLELSKK
[13]
  Rank (after): 178
[14]
  Rank (before): 3204

## AFLYTFLKNLTHPTTF
[10]
  Rank (after): 97
[11]
  Rank (before): 1875

## YFLHFLLFSLPATEYI
[5]
  P8_MAL Rank (after): 663
[6]
  P8_MAL Rank (before): 1473

## AFFLAQLKSVLGKPTM
[1]
  P8_MAL Rank (after): 533
[2]
  P8_MAL Rank (before): 1578

## RNLLAYLRWAVANTVI
[1]
  P8_MAL Rank (after): 541
[2]
  P8_MAL Rank (before): 2312

## TFFSQQLNTVVHTAIL
[8]
  P8_MAL Rank (after): 697
[9]
  P8_MAL Rank (before): 2542

## WFYERLVSHMLRDTKV
[10]
  Rank (after): 179
[11]
  Rank (before): 1232

## AFLYTFLINDPSDQF
[3]
  P8_MAL Rank (after): 214
[4]
  P8_MAL Rank (before): 1836

## AFLYTLLINLTHPTNF
[7]
  Population: 0.00432%

## KLFWEKFKFFLPTPSR
[3]
  P8_MAL Rank (after): 201
[4]
  P8_MAL Rank (before): 2708

## HLLKEFGKKLITAFKN
[5]
  P3_MAL Rank (after): 646
[6]
  P3_MAL Rank (before): 2779

## RGFLSHLRHYLQAKAH
[1]
  P3_MAL Rank (after): 552
[2]
  P3_MAL Rank (before): 2430

## PNLRTKVLNYLFRTNT
[3]
  P3_MAL Rank (after): 237
[4]
  P3_MAL Rank (before): 2711

## QLIQQWIELQLRQLHL
[5]
  P8_MAL Rank (after): 584
[6]
  P8_MAL Rank (before): 2356

## WFFERLVRPILRGTQG
[1]
  P8_MAL Rank (after): 559
[2]
  P8_MAL Rank (before): 1113

## AFFWAQLKNVLGSPTI
[8]
  P8_MAL Rank (after): 718
[9]
  P8_MAL Rank (before): 1642

## RHHRGPLGSDLQYHME
[1]
  P3_MAL Rank (after): 521
[2]
  P3_MAL Rank (before): 2572

## LFYERLVSLILRDTRG
[1]
  P8_MAL Rank (after): 496
[2]
  P8_MAL Rank (before): 1104

## VRVVDDGSVSPLEM
[1]
  P3_MAL Rank (after): 512
[2]
  P3_MAL Rank (before): 1691

## ESILNQLRHHLQAKDH
[13]
  Rank (after): 170
[14]
  Rank (before): 544

## VLHKFIGYLRDALQHR
[13]
  Rank (after): 184
[14]
  Rank (before): 1689

## YAFTGHLHRYLVQRRS
[8]
  P3_MAL Rank (after): 704
[9]
  P3_MAL Rank (before): 1408

## RLLKWKEALHQFIAG
[3]
  P3_MAL Rank (after): 264
[4]
  P3_MAL Rank (before): 2518

## RSLRERLWRLLALSKK
[1]
  P3_MAL Rank (after): 577
[2]
  P3_MAL Rank (before): 2628

## YAFTGHLHRYLLQKM
[3]
  P3_MAL Rank (after): 254
[4]
  P3_MAL Rank (before): 737

## NRWRNALTAAANLSGW
[12]
  Population: 0.00376%

## FDRFHIYFLHFLLFSR
[8]
  P8_MAL Rank (after): 680
[9]
  P8_MAL Rank (before): 1087

## RLLKWQQAMHQFHRWV
[1]
  P3_MAL Rank (after): 563
[2]
  P3_MAL Rank (before): 2488

## AFLYLSDQSDPSDQF
[3]
  P8_MAL Rank (after): 237
[4]
  P8_MAL Rank (before): 1915

## AFFLAQLKSVLGNPTT
[5]
  P8_MAL Rank (after): 670
[6]
  P8_MAL Rank (before): 1579

## WHFHLRLRMPDPLQKI
[13]
  Rank (after): 432
[14]
  Rank (before): 1297

## YAFTGHVPGYLVQRGV
[8]
  P3_MAL Rank (after): 757
[9]
  P3_MAL Rank (before): 1361

## WFYERLVSLILRDTIV
[7]
  Population: 0.00309%

## RSFREGLWRLLELRKQ
[1]
  P3_MAL Rank (after): 507
[2]
  P3_MAL Rank (before): 2627

## WFYERLVRLILSDTKV
[1]
  P8_MAL Rank (after): 549
[2]
  P8_MAL Rank (before): 1175

## LGFLSHLALNLQAKEH
[13]
  Rank (after): 399
[14]
  Rank (before): 2081

Source: article PMC11714206, “Massively Parallel Screening of Toll/Interleukin‐1 Receptor (TIR)‐Derived Peptides Reveals Multiple Toll‐Like Receptors (TLRs)‐Targeting Immunomodulatory Peptides” (Advanced Science, 2024)
